Patent publication US10059689B2, “Substituted heteroaryl compounds and methods of use” (Sunshine Lake Pharma Co., Ltd., priority 2014, dated 2018)

Key:
[1] = Compound stability in human liver microsomes; type: in vitro ADME; conditions: for half-life: pH 7.4, 37° C., NADPH, read-out: Human T1/2; for CLint scaled: pH 7.4, in vivo CLint extrapolated
Experimental: Human or rat liver microsomes incubations were conducted in duplicate in polypropylene tubes. The typical incubation mixtures consisted of human or rat liver microsomes (0.5 mg protein/mL), compounds of interest (5 μM) and NADPH (1.0 mM) in a total volume of 200 μL potassium phosphate buffer (PBS, 100 mM, pH 7.4). Compounds were dissolved in DMSO and diluted with PBS such that the final concentration of DMSO was 0.05%. The enzymatic reactions were commenced with the addition of protein after a 3-min preincubation and incubated in a water bath open to the air at 37° C. Reactions were terminated at various time points (0, 5, 10, 15, 30, 60 min) by adding equal volume of ice-cold acetonitrile. The samples were stored at −80° C. until LC/MS/MS assays.
The concentrations of compounds in the incubation mixtures of human or rat liver microsomes were determined by a LC/MS/MS method. The ranges of the linearity in the concentration range were determined for each tested compounds.
A parallel incubation was performed using denatured microsomes as the negative control, and reactions were terminated at various time points (0, 15, 60 min) after incubation at 37° C.
Verapamil (1 μM) was selected as the positive control, and reactions were terminated at various time points (0, 5, 10, 15, 30, 60 min) after incubation at 37° C. Both positive and negative control samples were included in each assay to ensure the integrity of the microsomal incubation system.
In addition, the stability date of compound in human and rat liver microsomes was also obtained through the following method. Human or rat liver microsomes incubations were conducted in duplicate in polypropylene tubes. The typical incubation mixtures consisted of human or rat liver microsomes (0.5 mg protein/mL), compounds of interest (1.5 μM) and EDTA (1.0 mM) in a total volume of 30 μL potassium phosphate buffer (PBS, 100 mM, pH 7.4). Compounds were dissolved in DMSO and diluted with PBS such that the final concentration of DMSO was 0.2%. The enzymatic reactions were commenced with the addition of 15 μL NADPH (final concentration: 2 mM) after a 10-min preincubation and incubated in a water bath open to the air at 37° C. Reactions were terminated at various time points (0, 15, 30, 60 min) by adding 135 μL acetonitrile (contain IS). The samples were centrifuged at 4000 rpm for 10 min to remove protein, the supernatant was stored at −80° C. until LC/MS/MS assays. Ketanserin (1 μM) was selected as the positive control, and reactions were terminated at various time points (0, 15, 30, 60 min) after incubation at 37° C. Both positive and negative control samples were included in each assay to ensure the integrity of the microsomal incubation system.
The concentrations of compounds in human or rat liver microsome incubations were plotted as a percentage of the relevant zero time point control for each reaction. The in vivo CLint were extrapolated (ref.: Naritomi, Y.; Terashita, S.; Kimura, S.; Suzuki, A.; Kagayama, A.; and Sugiyama, Y.; Prediction of human hepatic clearance from in vivo animal experiments and in vitro metabolic studies with liver microsomes from animals and humans. Drug Metab. Dispos., 2001, 29: 1316-1324).

[2] = molecular target: T1, JAK1 (h) (Homo sapiens, UniProt P23458); assay: JAK1 (h) kinase assay; type: biochemical
T1 construct: purchased Millipore UK Ltd (contract assay service)
Experimental: The above assay procedure can be used to determine the IC50 for inhibition and/or the inhibition constant, Ki. The IC50 is defined as the concentration of compound required to reduce the enzyme activity by 50% under the condition of the assay. The IC50 value is estimated by preparing a 10 point curve using a ½ log dilution series (for example, a typical curve may be prepared using the following compound concentrations: 3 μM, 1 μM, 0.3 μM, 0.1 μM, 0.03 μM, 0.01 μM, 0.003 μM, 0.001 μM, 0.0003 μM and 0 μM).
JAK1 (h) is incubated with 20 mM Tris/HCl pH 7.5, 0.2 mM EDTA, 500 μM GEEPLYWSFPAKKK, 10 mM MgAcetate and [γ-^33P-ATP] (specific activity approx. 500 cpm/pmol, concentration as required). The reaction is initiated by the addition of the MgATP mix. After incubation for 40 minutes at room temperature, the reaction is stopped by the addition of 3% phosphoric acid solution. 10 μL of the reaction is then spotted onto a P30 filtermat and washed three times for 5 minutes in 75 mM phosphoric acid and once in methanol prior to drying and scintillation counting.
The kinase assays described herein were performed at Millipore UK Ltd, Dundee Technology Park, Dundee DD2 1SW, UK.

T1 sequence (P23458 whole entry): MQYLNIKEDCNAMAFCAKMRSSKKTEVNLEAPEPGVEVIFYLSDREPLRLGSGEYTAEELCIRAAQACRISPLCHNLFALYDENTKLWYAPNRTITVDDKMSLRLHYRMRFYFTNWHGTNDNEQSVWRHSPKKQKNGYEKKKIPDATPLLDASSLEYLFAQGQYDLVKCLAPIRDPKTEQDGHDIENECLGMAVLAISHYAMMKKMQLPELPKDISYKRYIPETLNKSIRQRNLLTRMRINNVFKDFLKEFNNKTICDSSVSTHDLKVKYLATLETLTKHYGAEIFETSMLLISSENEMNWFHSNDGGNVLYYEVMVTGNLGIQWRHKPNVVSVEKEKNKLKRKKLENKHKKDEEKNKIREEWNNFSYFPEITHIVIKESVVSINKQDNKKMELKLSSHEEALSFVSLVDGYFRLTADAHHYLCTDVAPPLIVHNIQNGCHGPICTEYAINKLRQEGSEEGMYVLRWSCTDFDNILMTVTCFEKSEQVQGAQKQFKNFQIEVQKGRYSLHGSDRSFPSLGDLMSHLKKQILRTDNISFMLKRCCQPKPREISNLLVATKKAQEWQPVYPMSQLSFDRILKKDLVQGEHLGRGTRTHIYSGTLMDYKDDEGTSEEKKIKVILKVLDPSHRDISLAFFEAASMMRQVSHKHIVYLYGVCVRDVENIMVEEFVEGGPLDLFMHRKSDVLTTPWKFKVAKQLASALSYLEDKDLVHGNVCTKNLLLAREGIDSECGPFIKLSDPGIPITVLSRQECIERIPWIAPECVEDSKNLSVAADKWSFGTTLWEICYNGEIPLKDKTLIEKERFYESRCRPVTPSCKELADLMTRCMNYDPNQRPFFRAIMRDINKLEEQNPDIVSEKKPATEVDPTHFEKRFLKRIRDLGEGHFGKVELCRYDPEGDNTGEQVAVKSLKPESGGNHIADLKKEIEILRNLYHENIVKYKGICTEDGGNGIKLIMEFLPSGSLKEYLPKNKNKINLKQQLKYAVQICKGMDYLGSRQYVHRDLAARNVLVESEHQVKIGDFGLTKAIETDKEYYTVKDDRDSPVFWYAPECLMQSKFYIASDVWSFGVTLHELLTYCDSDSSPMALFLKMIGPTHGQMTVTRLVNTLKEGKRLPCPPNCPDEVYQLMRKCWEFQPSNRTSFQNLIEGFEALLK

Structure (SMILES)	half-life [1] [min]	CLint scaled [1] [mL/min/kg]	IC50 [2] [nM]
Cn1cc(Nc2ncc(Cl)c(NC3CCN(c4ccc(C#N)cn4)CC3)n2)cn1 [Ex. 1, 6-(4-((5-chloro-2-((1-methyl-1H-pyrazol-4-yl)amino)pyrimidin-4-yl)amino)piperidin-1-yl)nicotinonitrile]	40.8	42.6	< 0.3
Cc1c2ccc(Nc3ncc(Cl)c(NC4CCN(c5ccc(C#N)cn5)CC4)n3)cc2nn1C [Ex. 4]	13.2	131	0.3
CN(c1nc(Nc2cnn(C)c2)ncc1Cl)C1CCN(c2ccc(C#N)cn2)CC1 [Ex. 5, 6-(4-((5-chloro-2-((1-methyl-1H-pyrazol-4-yl)amino)pyrimidin-4-yl) (methyl)amino)piperidin-1-yl)nicotinonitrile]	22.9	75.7	0.8
Cc1nn(C)cc1Nc1ncc(Cl)c(NC2CCN(c3ccc(C#N)cn3)CC2)n1 [Ex. 10, 6-(4-((5-chloro-2-((1,3-dimethyl-1H-pyrazol-4-yl)amino)pyrimidin-4-yl)amino)piperidin-1-yl)nicotinonitrile]	5.51	315	< 0.3
Cc1nn(C)cc1Nc1ncc(Cl)c(NC2CCN(c3ccc(C#N)nn3)CC2)n1 [Ex. 11, 6-(4-((5-chloro-2-((1,3-dimethyl-1H-pyrazol-4-yl)amino)pyrimidin-4-yl)amino)piperidin-1-yl)pyridazine-3-carbonitrile]	13.1	133	0.4
Cc1c2ccc(Nc3ncc(Cl)c(NC4CCN(c5ccc(C#N)nn5)CC4)n3)cc2nn1C [Ex. 12, 6-(4-((5-chloro-2-((2,3-dimethyl-2H-indazol-6-yl)amino)pyrimidin-4-yl)amino)piperidin-1-yl)pyridazine-3-carbonitrile]	25.3	68.8	< 0.3
Cc1cc(Nc2ncc(Cl)c(NC3CCN(c4ccc(C#N)nn4)CC3)n2)nn1C [Ex. 13, 6-(4-((5-chloro-2-((1,5-dimethyl-1H-pyrazol-3-yl)amino)pyrimidin-4-yl)amino)piperidin-1-yl)pyridazine-3-carbonitrile]	68.2	25.5	0.4
